The text below walks through data of patent publication US20220280607A1, “Treatment of Heart Defects and Conditions in Pediatric Patients” (University of Pittsburgh - Of the Commonwealth System of …, priority 2019, published 2022).

This assay deals with cardiomyocytes of newborn mice. Nature of the assay: Mouse pharmacological treatment of newborn mice: binucleated cardiomyocytes, cardiomyocyte endowment, cell cycle activity, heart weight. Format: in vivo. The following applies: for increase of cardiomyocyte endowment: counting fixation-digested hearts, FIG. 12D. The procedure:
[…] An equal volume of phosphate buffered saline (PBS) was injected in the control groups.
Isolation of intact cardiomyocytes for quantification: We used a previously validated fixation digestion method to isolate intact cardiomyocytes from fresh or frozen myocardium for quantification (Mollova, M., et al. “Cardiomyocyte proliferation in human heart growth” Proceedings of the National Academy of Sciences January 2013, 110 (4) 1446-1451; DOI: 10.1073/pnas.1214608110). The myocardium was cut into 1 cubic millimeter (mm^3) sized tissue blocks followed by incubation with 3.7% formaldehyde at room temperature for 1.8 hours. After being washed with PBS 3 times to remove the formaldehyde, the fixed tissue blocks were digested in enzyme solution (Collagenase B, 3.6 mg/ml; Collagenase D, 4.8 mg/ml) at 37 degrees Celsius (° C.), with 10 revolutions per minute (rpm) overhead rotation. The digested cells were collected every 24 hours from the supernatant, and the undigested tissue was re-suspended with fresh enzyme solution until all of the tissue pieces were digested. All of the digested cells from the same heart were then combined and allowed to settle to the bottom of the tube. The cell pellet was collected for further study.
Counting of cardiomyocytes after fixation and digestion: All fractions from the digestion of a heart were combined in 2 milliliters (mL) PBS and cardiomyocytes were quantified using a hemocytometer.
Intact cardiomyocytes in suspension. To assess M-phase, intact cardiomyocytes were isolated by fixation-digestion. The solution containing the stained cells was then transferred to 8-well chambered cover glass (400 μl/well). After the cells were settled down to the bottom of the chambers, the number of mono/bi/multinucleated cardiomyocytes were counted with a fluorescence microscope, and the percentage of mono/bi/multinucleated cardiomyocytes was calculated. To quantify the proportion of H3P-positive cardiomyocytes, the concentration of stained cardiomyocytes in suspension (Ccardiomyocytes) was first measured using a hemocytometer. The cell suspension (400 μl) was then transferred to a well of a chamber slide, and the total number of H3P-positive cardiomyocytes (HH3P+) inside the well was counted with a TiE epifluorescence microscope. The proportion of the H3P-positive cardiomyocytes (PH3P+) was calculated using the following formula: […]
Heart sections: To determine S-phase, BrdU (40 μg/g body) was administered to P7 ICR mice and the hearts were resected at P8, fixed, and cryosectioned at 15 μm thickness. From each heart, four heart sections at a distance of 300 μm were selected and imaged by tile scanning with a Nikon A1R confocal microscope. The total number of BrdU-positive cardiomyocytes at the selected heart sections was counted. The total area of the selected heart sections was measured by Fiji software. The density of BrdU-positive cardiomyocytes (cells/mm^2) in the hearts was calculated using the following equation: […]
Intact cardiomyocytes in suspension. Cardiomyocytes were isolated from fresh or frozen (human or mouse) ventricle myocardium using the fixation-digestion method, followed by immunostaining as described above. The cells were then imaged and quantified with a Nikon A1R microscope for mono/bi/multi-nucleation.

`CC(C)NCC(O)COc1cccc2ccccc12` (centres unmarked) [propranolol, 1-naphthalen-1-yloxy-3-(propan-2-ylamino)propan-2-ol]: the “fewer cardiomyocytes undergoing cytokinesis failure than PBS-treated pups” value (at P8) is listed as 13.6%. Where the note is “at P8, back-of-the-envelope calculation from endowment of PBS-treated pups at P4”, the “additional cardiomyocytes predicted to be generated by enabling completion of cytokinesis” value is 0.22×10^6 cardiomyocytes. Also, the “propranolol-induced increase of endowment between P4 and P8 (treated minus PBS)” value (calculated from the counts) was 0.18×10^6 cardiomyocytes. Also, the heart weight result (newborn mice, 2 i.p. injections per day, FIG. 16A, 16B) was “not changed”. For the same compound, the “increase of cardiomyocyte endowment” value by setting is: (newborn mice, at P4, 10 μg/g, 2 i.p. injections per day) 22%; (newborn mice, at P8, 2 i.p. injections per day, 12H) 30%. The “cardiomyocyte cell cycle entry (quantified by BrdU uptake)” value (newborn mice, at P8, FIG. 12E) is on record as “without a change”. The “progression to M-phase (quantified by H3P-staining)” value (newborn mice, at P8, FIG. 12F) was “without a change”. The “decrease of the proportion of binucleated cardiomyocytes” value (newborn mice, treatment from P1 to P4, 10 μg/g, 2 i.p. injections per day, FIG. 12C) was 21%. Further, the “decrease of the proportion/formation of binucleated cardiomyocytes” value (newborn mice, treatment from P1 to P8, 2 i.p. injections per day (propranolol 10 μg/g; alprenolol 10 μg/g, 40 μg/g), FIG. 12C, 12G) is 17%. Besides, the “increase of cardiomyocyte endowment between P4 and P8 in treated pups” value (propranolol-treated pups, from counts) is 0.35×10^6 cardiomyocytes.
